These results are taken from patent publication US4340539A, “Derivatives of 6-bromo penicillanic acid” (priority 1980, dated 1982).

As usually defined, the MIC is the smallest concentration in the dilution series that meets the test's criterion for growth inhibition.

Structures are written as SMILES. ≈ marks a conversion by molar mass, not a printed value. Where a name gives a salt, the structure may show the parent alone. Read-outs that look alike come from different tables or passages of the source.

A short description of one series: in vivo. Set-up: species or system mice. Conditions: mouse, blood, po, 100 mg/kg, Test 3, oral 100 mg/kg, 30 min; read-out: Blood level. The text has this:
Compounds prepared in 5% Propylene Glycol & TweenCMC-H2 O.
Values in parentheses are 95% confidence limits.
Assay Organism: E. coli A9675 (pH = 6.6, 0.1% inoculum)

For another series, the system named is S. pyogenes. Description: Antibacterial activity (MIC). The series is classed as cell-based. Particulars: Streptococcus pyogenes; strain A-9604.
A further series deals with E. coli. Description: Antibacterial activity (MIC). The series is classed as cell-based. Particulars: Escherichia coli, strain A15119.
Another series deals with P. rettgeri. Description: Antibacterial activity (MIC). It is filed as cell-based. Conditions: Providencia rettgeri; strain A21203.
Another series concerns P. mirabilis. Description: Antibacterial activity (MIC). The series is classed as cell-based. Particulars: Proteus mirabilis; strain A-9900.
The test system of another series is S. aureus. Description: Antibacterial activity (MIC). It is filed as cell-based. Particulars: Staphylococcus aureus.
The test system of the next series is S. pneumoniae. Description: Antibacterial activity (MIC). It is filed as cell-based. Conditions: Streptococcus pneumoniae; strain A-9585.
The test system of a further series is S. marcescens. Description: Antibacterial activity (MIC). It is filed as cell-based. Particulars: Serratia marcescens; strain A20019.
The subject of a further series is S. faecalis. Description: Antibacterial activity (MIC). The series is classed as cell-based. Conditions: Enterococcus faecalis; strain A20688.
A further series deals with E. cloacae. Description: Antibacterial activity (MIC). It is filed as cell-based. Particulars: Enterobacter cloacae, strain A-9659.
The conditions of series [1]: man, cited from earlier work.
Another series is described as follows: Hygroscopicity. The series is classed as physicochemical.
A further series deals with B. thetaiotaomicron. Description: Anti-Bacteroides activity (MIC, agar dilution), alone and in combination with BL-P2013. It is filed as cell-based. How it is done:
*Minimum inhibitory concentration (MIC) determined by the agar dilution
method using 50X dilutions of 24 hour cultures as inocula dispensed by th
Steer's inoculator. Assay medium composed of Brucella Agar plus 5% laked
sheep blood and 10 mcg/ml vitamin K.

The test system of the next series is Bacteroides species. The description is as above. It is filed as cell-based.
The test system of another series is B. fragilis. Described as above. The series is classed as cell-based.
The test system of the next series is S. aureus A-9606. Description: Therapeutic efficacy in mice experimentally infected with a beta-lactamase strain of Staphylococcus aureus (Table 3). It is filed as in vivo. Particulars: for ED50: Staphylococcus aureus, A9606, challenge 5 × 10^8, read-out: PD50/Treatment. The procedure: Treatment schedule: Drugs administered 0 and 2 hours postinfection.
The test system of series [2] is β-lactamase producing strains of E. coli. Description: animal or person. It is filed as in vivo, mice. Particulars: Escherichia coli, in Mus musculus, po. How it is done:
(§1) Drugs were administered orally at 0 and 2 hours postinfection.
(§2) Drugs were suspended in TCMC.

Series [3] concerns β-lactamase producing strains of S. aureus. Description: animal or person. Particulars: Staphylococcus aureus, in Mus musculus, po. It is filed as in vivo, mice. How it is done:
as §1, §2

Series [4] deals with β-lactamase producing strains of E. coli. Description: Therapeutic efficacy of amoxicillin in combinations with BL-P2024 in infected mice (Table 7). The series is classed as in vivo. Particulars: oral.
Series [5] concerns β-lactamase producing strains of S. aureus. The description is as above. Conditions: Staphylococcus aureus, po, read-out: PD50/Treatment. It is filed as in vivo.
The mark [6] stands for this setting: Bacteroides thetaiotaomicron, strain A22277, β-lactamase +, read-out: MIC.
Where [7] appears, read: Bacteroides, strain A20927-1, β-lactamase -, read-out: MIC.
Where [8] appears, read: Bacteroides, strain A20933, β-lactamase +, read-out: MIC.
Setting [9] is: Bacteroides, strain A20934, β-lactamase +, read-out: MIC.
The mark [10] stands for this setting: Bacteroides, strain A20935, β-lactamase -, read-out: MIC.
Setting [11] is: strain A21875, β-lactamase +, read-out: MIC.
Where [12] appears, read: strain A21916, β-lactamase +, read-out: MIC.
[13] abbreviates: strain A22021, β-lactamase +, read-out: MIC.
The mark [14] stands for this setting: strain A22053, β-lactamase +, read-out: MIC.
Where [15] appears, read: strain A22697, β-lactamase +, read-out: MIC.
Setting [16] is: strain A22793, β-lactamase +, read-out: MIC.
The mark [17] stands for this setting: strain A22794, β-lactamase +, read-out: MIC.
Where [18] appears, read: strain A22798, β-lactamase +, read-out: MIC.

In the case of `CC1(CCl)C(C(=O)OC2OC(=O)c3ccccc32)N2C(=O)CC2S1(=O)=O` (centres unmarked) [BL-P2036], in “in vivo”, the concentration at 0.5 h is 6700 ng/mL.

Consider `CC1(C)S[C@@H]2[C@H](NC(=O)[C@H](N)c3ccccc3)C(=O)N2[C@H]1C(=O)O` [Ampicillin, reference compound], for which the MIC was 0.004 µg/mL (≈ 0.0114 µM) against S. pyogenes; 1 µg/mL (≈ 2.86 µM) in the series with E. coli; 4 µg/mL (≈ 11.4 µM) in the series with P. rettgeri; 0.13 µg/mL (≈ 0.372 µM) in the series with P. mirabilis; 0.16 µg/mL (≈ 0.458 µM) with S. aureus (strain A-9537); 0.06 µg/mL with S. aureus (strain A-9537, + 50% serum). The MIC against S. pneumoniae stood at 0.004 µg/mL (≈ 0.0114 µM); against S. marcescens, 16 µg/mL (≈ 45.8 µM); with S. faecalis, 0.13 µg/mL (≈ 0.372 µM); in the series with E. cloacae, 63 µg/mL (≈ 180 µM).

Regarding `CC1(C)S[C@@H]2[C@H](NC(=O)[C@H](N)c3ccccc3)C(=O)N2[C@H]1C(=O)OCOC(=O)[C@@H]1N2C(=O)C[C@H]2S(=O)(=O)C1(C)C` [Example 3], the absorption result in series [1] (gastro-intestinal tract) is “excellently absorbed”. Besides, in series [1], the “blood and tissue levels of antibiotic and β-lactamase inhibitor” value was “high blood and tissue levels”; the hydrolysis after absorption entry was “hydrolyzed with simultaneous liberation of the active components”.

Consider `CC1(CCl)C(C(=O)O)N2C(=O)CC2S1(=O)=O` (centres unmarked) [Sodium Salt of BL-P2013], for which the hygroscopicity result in the series “Hygroscopicity” is reported as “Non-hygroscopic”.

Turning to `NCc1ccccc1CC(=O)N[C@@H]1C(=O)N2C(C(=O)O)=C(CSc3nnnn3CC(=O)O)CS[C@H]12` [Ceforanide], the MIC in the series with B. thetaiotaomicron (setting [6]) stood at 125 µg/mL; in the series on B. thetaiotaomicron (strain A22279, β-lactamase +) it was 125 µg/mL; in the series with Bacteroides species (Bacteroides), 125 µg/mL; in the series with Bacteroides species (setting [7]), 0.5 µg/mL; in the series on Bacteroides species (Bacteroides, strain A20929, β-lactamase +, read-out: MIC), 63 µg/mL; in the series on Bacteroides species (Bacteroides, strain A20931, β-lactamase +, read-out: MIC) it was 63 µg/mL. For the same compound, the MIC in the series with Bacteroides species (setting [8]) stood at 63 µg/mL; in the series with Bacteroides species (setting [9]), 32 µg/mL; in the series with Bacteroides species (setting [10]), 2 µg/mL; with Bacteroides species (Bacteroides, strain A21954, β-lactamase +, read-out: MIC) it was 63 µg/mL; with Bacteroides species (Bacteroides, strain A21959, β-lactamase +, read-out: MIC), 63 µg/mL; with B. fragilis (setting [11]) it was 32 µg/mL. The MIC is 63 µg/mL in the series on B. fragilis (setting [12]); 32 µg/mL in the series with B. fragilis (setting [13]); 32 µg/mL in the series on B. fragilis (setting [14]); over 125 µg/mL in the series on B. fragilis (strain A22533, β-lactamase +); over 125 µg/mL with B. fragilis (strain A22534, β-lactamase +); over 125 µg/mL with B. fragilis (strain A22535, β-lactamase +). The MIC with B. fragilis (strain A22693, β-lactamase +, read-out: MIC) is 63 µg/mL; in the series with B. fragilis (strain A22694, β-lactamase +), 125 µg/mL; in the series with B. fragilis (strain A22695, β-lactamase +), over 125 µg/mL; in the series with B. fragilis (strain A22696, β-lactamase +) it was over 125 µg/mL; with B. fragilis (setting [15]), 63 µg/mL; in the series on B. fragilis (strain A22792, β-lactamase +), over 125 µg/mL. The MIC came out at 32 µg/mL with B. fragilis (setting [16]); 32 µg/mL in the series on B. fragilis (setting [17]); 63 µg/mL with B. fragilis (strain A22795, β-lactamase +, read-out: MIC); 63 µg/mL with B. fragilis (strain A22797, β-lactamase +, read-out: MIC); 32 µg/mL with B. fragilis (setting [18]).

For `CC1(C)S[C@@H]2[C@H](NC(=O)[C@H](N)c3ccc(O)cc3)C(=O)N2[C@H]1C(=O)O` [Amoxicillin], the PD50/Treatment with S. aureus A-9606 (IM, challenge 7 × 10^8) is reported as over 800 mg/kg; in series [4] (E. coli A9675, challenge 6 × 10^5, vehicle TCMC) it was over 400 mg/kg; in series [4] (E. coli A9675, challenge 7 × 10^5, vehicle 50% DMSO), over 100 mg/kg; in series [4] (E. coli A9675, challenge 7 × 10^5, vehicle TCMC), over 100 mg/kg; in series [4] (E. coli A9675, challenge 9 × 10^5, vehicle 50% DMSO), over 100 mg/kg. For the same compound, the ED50 in the series on S. aureus A-9606 (IM) was over 800 mg/kg; with S. aureus A-9606 (PO) it was over 800 mg/kg; in series [2] (read-out: PD50/Treatment, oral, E. coli A9675, challenge 6 × 10^5), over 400 mg/kg; in series [2] (read-out: PD50/Treatment, oral, E. coli A9675, challenge 7 × 10^5), over 100 mg/kg; in series [2] (read-out: PD50/Treatment, oral, E. coli A9675, challenge 8 × 10^5) it was over 200 mg/kg; in series [2] (read-out: PD50/Treatment, oral, E. coli A20649, challenge 5 × 10^5), over 200 mg/kg. Further, the ED50 was over 200 mg/kg in series [2] (read-out: PD50/Treatment, oral, E. coli A20649, challenge 6 × 10^5); over 200 mg/kg in series [2] (read-out: PD50/Treatment, oral, E. coli A21223, challenge 6 × 10^5); over 200 mg/kg in [2] (read-out: PD50/Treatment, oral, E. coli A21223, challenge 7 × 10^5 (first line)); over 200 mg/kg in series [2] (read-out: PD50/Treatment, oral, E. coli A21223, challenge 7 × 10^5 (third line)); over 800 mg/kg in series [3] (read-out: PD50/Treatment, oral, S. aureus A9606, challenge 2 × 10^9); over 200 mg/kg in series [3] (read-out: PD50/Treatment, oral, S. aureus A9606, challenge 7 × 10^8). Also, the ED50 in series [3] (read-out: PD50/Treatment, oral, S. aureus A15091, challenge 4 × 10^8) was over 200 mg/kg; in series [3] (read-out: PD50/Treatment, oral, S. aureus A15091, challenge 5 × 10^8) it was over 800 mg/kg; in series [3] (read-out: PD50/Treatment, oral, S. aureus A20379, challenge 5 × 10^8), over 200 mg/kg; in [3] (read-out: PD50/Treatment, oral, S. aureus A20379, challenge 6 × 10^8), over 200 mg/kg; in [5] it was over 800 mg/kg. For the same compound, the MIC stood at 16 µg/mL with B. thetaiotaomicron (setting [6]); 16 µg/mL in the series with B. thetaiotaomicron (strain A22279, β-lactamase +); 16 µg/mL in the series on Bacteroides species (Bacteroides); 0.13 µg/mL with Bacteroides species (setting [7]); 32 µg/mL in the series on Bacteroides species (Bacteroides, strain A20930, β-lactamase +, read-out: MIC); 8 µg/mL in the series with Bacteroides species (setting [8]). Moreover, the MIC in the series on Bacteroides species (setting [9]) was 8 µg/mL; with Bacteroides species (setting [10]), 0.13 µg/mL; in the series with Bacteroides species (strain A20929, β-lactamase +) it was 16 µg/mL; in the series on Bacteroides species (strain A20931, β-lactamase +), 16 µg/mL; with Bacteroides species (strain A21954, β-lactamase +), 16 µg/mL; in the series with B. fragilis (setting [11]) it was 8 µg/mL. Moreover, the MIC in the series with B. fragilis (setting [12]) was 8 µg/mL; with B. fragilis (setting [13]), 4 µg/mL; with B. fragilis (setting [14]), 8 µg/mL; in the series with B. fragilis (strain A22533, β-lactamase +) it was over 125 µg/mL; in the series with B. fragilis (strain A22534, β-lactamase +) it was over 125 µg/mL; in the series on B. fragilis (strain A22535, β-lactamase +), over 125 µg/mL. In addition, the MIC with B. fragilis (strain A22693, β-lactamase +) was 16 µg/mL; in the series with B. fragilis (strain A22694, β-lactamase +) it was 16 µg/mL; with B. fragilis (strain A22695, β-lactamase +), 125 µg/mL; in the series on B. fragilis (strain A22696, β-lactamase +), over 125 µg/mL; in the series with B. fragilis (setting [15]) it was 8 µg/mL; with B. fragilis (strain A22792, β-lactamase +), 125 µg/mL. Besides, the MIC in the series on B. fragilis (setting [16]) came out at 8 µg/mL; in the series on B. fragilis (setting [17]), 8 µg/mL; with B. fragilis (strain A22795, β-lactamase +) it was 16 µg/mL; in the series on B. fragilis (strain A22797, β-lactamase +), 16 µg/mL; in the series with B. fragilis (setting [18]), 8 µg/mL.
